Reference: PMC11045757, “Group 3 medulloblastoma transcriptional networks collapse under domain specific EP300/CBP inhibition” (Nature Communications, 2024)
Several values for one entry are separate records, joined by “and”; a condition that tells them apart may be missing. Equal entries are not always repeated. Where two headings read alike, the source gives them in different places.

Assays:
EP300 bromodomain = biological target: T1, EP300 bromodomain (Homo sapiens, UniProt Q09472); test: Differential scanning fluorimetry (DSF) thermal shift; format: binding; settings: DSF; for ∆Tm (°C) EP300: 5 μM protein, 100 μM compound, three independent experiments, average ± SD; for ΔTm (°C) EP300: Figure 3B
T1 construct: 6xHis (cleaved yes); host or cells: E. coli BL21 (DE3) RIL
T1 sequence (Q09472 1048-1161): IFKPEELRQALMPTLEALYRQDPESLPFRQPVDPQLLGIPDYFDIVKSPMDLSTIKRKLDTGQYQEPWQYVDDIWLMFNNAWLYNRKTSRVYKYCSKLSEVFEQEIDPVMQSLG
Protocol: (§1) At OD600 of 0.6, the culture was cooled down to 18 °C and induced with 0.1 mM IPTG. After 18 h growth, the culture was harvested by centrifugation at 6000 × g for 25 min and stored at -80 °C. Harvested cell pellets were re-suspended in 50 mM Na/K phosphate buffer (pH 7.4) containing 100 mM NaCl, 40 mM imidazole, 0.01% w/v lysozyme and 0.01% v/v Triton X-100 at 4 °C for 1 h, subjected to sonication and the lysate was clarified by centrifugation (30,000 × g for 45 min at 4 °C). Proteins were purified by FPLC at 4 °C using columns and chromatography materials from GE Healthcare. […] Proteins were purified to homogeneity by size exclusion chromatography using Superdex 75 equilibrated with elution buffer (50 mM HEPES pH 7.5, 100 mM NaCl, 2 mM DTT). All BRDs eluted as monomeric protein and were of crystallization grade quality (>95% purity as judged by SDS-PAGE). Pool fractions were combined, concentrated to 10–12 mg/ml, and aliquots were flash-frozen in liquid N2 and stored at −80 °C.
(§2) DSF experiments were performed with an Applied Biosystem StepOnePlus real-time PCR system (Thermo Fisher Scientific) using 96-well format plates, assayed in quadruplicate. For thermal shift determination, 5 μM protein was mixed with 100 μM compound in 50 mM HEPES, pH 7.5, 150 mM NaCl, 2 mM DTT, 2% DMSO, 5X SYPRO Orange (Thermo Fisher Scientific) in 20 μL reaction volumes. Reaction mixtures were heated from 25 to 95 °C at 1 °C/min with fluorescence readings every 0.5 °C at 610 nm. The observed thermal shift (ΔTm) was recorded as the difference between the Tm of sample and DMSO reference wells.

BRD4-BD1 (BRD4-1) [1] = biological target: T2, BRD4-BD1 (BRD4-1) (Homo sapiens, UniProt O60885); test: as above; format: binding; settings: DSF; for ∆Tm (°C) BRD4-1: 5 μM protein, 100 μM compound, three independent experiments, average ± SD; for ΔTm (°C) BRD4-BD1: Figure 3A
T2 construct: BRD4-BD1 (residues 44-168); 6xHis (cleaved yes); host or cells: E. coli BL21 (DE3) RIL
Protocol: as §1, §2

CBP bromodomain [2] = biological target: T3, CBP bromodomain (Homo sapiens, UniProt Q92793); test: as above; format: binding; settings: for ∆Tm (°C) CBP / ΔTm (°C) CBP: DSF; for ∆Tm (°C) CBP: 5 μM protein, 100 μM compound, three independent experiments, average ± SD; for DSF ΔTm (°C): Figure 3C, DSF (values equal CBP column)
T3 construct: CBP (residues 1081-1197); 6xHis (cleaved yes); host or cells: E. coli BL21 (DE3) RIL
Protocol: as §1, with “After” for “At OD600 of 0.6, the culture was cooled down to 18 °C and induced with 0.1 mM IPTG. After”, “All BRDs eluted as monomeric protein and were of crystallization grade quality (>95% purity as judged by SDS-PAGE).” left out
(§3) DSF experiments were performed with an Applied Biosystem StepOnePlus real-time PCR system (Thermo Fisher Scientific) using 96-well format plates, assayed in quadruplicate. For thermal shift determination, 5 μM protein was mixed with 100 μM compound in 50 mM HEPES, pH 7.5, 150 mM NaCl, 2 mM DTT, 2% DMSO, 5X SYPRO Orange (Thermo Fisher Scientific) in 20 μL reaction volumes.

CBP bromodomain [3] = test: as above; format: binding; settings: ΔTm (CBP)/ΔTm(BRD4)
Protocol: as §1, with “After” for “At OD600 of 0.6, the culture was cooled down to 18 °C and induced with 0.1 mM IPTG. After”, “All BRDs eluted as monomeric protein and were of crystallization grade quality (>95% purity as judged by SDS-PAGE).” left out
as §3

[4] = test system: HDMB03 (HDMBO3) group 3 medulloblastoma cells; test: CellTiter-Glo dose-response growth assay; format: cell-based; settings: HDMBO3 G3MB cell growth, read-out: IC50 (nM) HDMBO3
Protocol: CellTiter-Glo assay was performed as per the manufacturer’s instructions, at the noted timepoint after compound treatment or plating. For Kelly, TE617T, RhJT, NCIH2122, NCIH650 and 143B, 500 cells were plated in normal growth media per well in a 384-well plate (Corning). HDMB03 and MB002 cells were plated in growth media at 500 cells/well in a 384-well plate. […] Cells were incubated for the noted timepoints prior to performing CellTiter-Glo assay as per the manufacturer’s instructions, and reading plates on an Envision 2104 microplate reader.

[5] = biological target: GFP-tagged CBP bromodomain (Homo sapiens, UniProt Q92793); test: Microscale thermophoresis (MST); format: binding; settings: for Response (Dose Response Curve): MST raw response
Protocol: MST experiments were performed in a Monolith NT.115 Pico instrument (NanoTemper Technologies) following published procedures. […] MST traces were recorded using standard parameters: 5 s MST power off, 30 s MST power on and 5 s MST power off. Measurements were taken at -1-0 s (cold region) and 10 s (hot region) and data were analyzed using the NTAnalysis software.

BRD4-BD1 (BRD4-1) [6] = biological target: T2, BRD4-BD1 (BRD4-1); test: Isothermal titration calorimetry (ITC); format: binding; settings: relative to CCS1477
Protocol: as §1
All experiments were conducted using an PEAQ-ITC calorimeter (Malvern Scientific). BRDs were buffer exchanged using PD10 columns (GE life sciences) into 50 mM HEPES pH7.5 and 100 mM NaCl (ITC buffer) before the experiment and concentrated to ∼10 mg/mL. Experiments were carried out in ITC buffer while stirring at 750 rpm through reverse titration. The microsyringe (40 μL load volume) was loaded with the protein sample (250–600 μM protein in ITC buffer) and inserted into the calorimetric cell (0.2 mL cell volume) consisting of compound (20–60 μM in ITC buffer). All titrations were conducted using an initial control injection of 0.2 μL followed by 13 identical injections (~3 μL per injection) with a duration of 2 s (per injection) and a spacing of 150 s between injections. The ratio of protein/compound was optimized to ensure complete saturation of the titrant before the final injection to ensure proper baseline determination. Data were corrected for dilution and analyzed using the MicroCal Origin software to determine the enthalpies of binding (ΔH) and binding constants as described. Thermodynamic parameters were calculated using the basic equation of thermodynamics (ΔG = ΔH − TΔS = −RTlnKB) where ΔG, ΔH and ΔS are the changes in free energy, enthalpy and entropy of binding, respectively. A single binding site model was used for all ligand-protein interactions.

[7] = three independent MST experiments, average ± SD, read-out: Kd (nM) CBP

T3 sequence (Q92793 1081-1197): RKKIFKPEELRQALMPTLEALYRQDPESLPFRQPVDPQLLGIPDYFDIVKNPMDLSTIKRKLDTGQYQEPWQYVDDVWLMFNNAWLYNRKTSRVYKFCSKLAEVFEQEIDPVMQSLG
GFP-tagged CBP bromodomain, sequence (Q92793 1085-1192 limits assumed): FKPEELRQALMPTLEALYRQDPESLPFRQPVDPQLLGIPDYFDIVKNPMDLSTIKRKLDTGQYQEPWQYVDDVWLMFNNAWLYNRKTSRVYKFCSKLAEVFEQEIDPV

| ∆Tm (°C) EP300 (EP300 bromodomain) [°C] | ΔTm (°C) EP300 (EP300 bromodomain) [°C] | ∆Tm (°C) BRD4-1 (BRD4-BD1 (BRD4-1) [1]) [°C] | ΔTm (°C) BRD4-BD1 (BRD4-BD1 (BRD4-1) [1]) [°C] | ∆Tm (°C) CBP (CBP bromodomain [2]) [°C] | ΔTm (°C) CBP (CBP bromodomain [2]; Figure 3A, CBP bromodomain) [°C] | ΔTm (°C) CBP (CBP bromodomain [2]; Figure 3B, CBP) [°C] | DSF ΔTm (°C) (CBP bromodomain [2]) | Kd [5, 7] | IC50 ([4]; Homo sapiens, HD-MB03) [nM] | Compound | Ratio CBP/BRD4 of ∆Tm (CBP bromodomain [3]) | further results |
| --- | --- | --- | --- | --- | --- | --- | --- | --- | --- | --- | --- | --- |
| 14.8 ± 0.45 | 14.8 | 5.5 ± 0.17 | 5.5 | 14.6 ± 0.16 | 14.6 | 14.6 | 14.6 | 31.4 ± 14.2 nM | 108 ± 25 | COC1CCC(n2c(C3CCCC(=O)N3c3ccccc3)nc3cc(-c4c(C)noc4C)ccc32)CC1 (stereo not shown) [Compound 5] | 2.7 | Response (Dose Response Curve) ([5]; Dose 1.52588e-10, single replicate run, listed as iCBP-5): 914.717 and 915.838; Response (Dose Response Curve) ([5]; Dose 3.05176e-10, single replicate run, listed as iCBP-5): 915.243 and 914.96; Response (Dose Response Curve) ([5]; Dose 6.10352e-10, single replicate run, listed as iCBP-5): 914.396 and 915.476; Response (Dose Response Curve) ([5]; Dose 1.2207e-9, single replicate run, listed as iCBP-5): 915.983 and 915.524; Response (Dose Response Curve) ([5]; Dose 2.44141e-9, single replicate run, listed as iCBP-5): 915.86 and 916.029; Response (Dose Response Curve) ([5]; Dose 4.88281e-9, single replicate run, listed as iCBP-5): 914.611 and 915.107; Response (Dose Response Curve) ([5]; Dose 9.76563e-9, single replicate run, listed as iCBP-5): 914.911 and 914.67; Response (Dose Response Curve) ([5]; Dose 1.95313e-8, single replicate run, listed as iCBP-5): 915.602 and 914.588; Response (Dose Response Curve) ([5]; Dose 3.90625e-8, single replicate run, listed as iCBP-5): 913.799 and 914.854; Response (Dose Response Curve) ([5]; Dose 7.8125e-8, single replicate run, listed as iCBP-5): 913.08 and 913.563; Response (Dose Response Curve) ([5]; Dose 1.5625e-7, single replicate run, listed as iCBP-5): 911.965 and 911.667; Response (Dose Response Curve) ([5]; Dose 3.125e-7, single replicate run, listed as iCBP-5): 909.591 and 910.599; Response (Dose Response Curve) ([5]; Dose 6.25e-7, single replicate run, listed as iCBP-5): 911.215 and 910.906; Response (Dose Response Curve) ([5]; Dose 1.25e-6, single replicate run, listed as iCBP-5): 911.169 and 911.287; Response (Dose Response Curve) ([5]; Dose 2.5e-6, single replicate run, listed as iCBP-5): 914.21 and 911.877; Response (Dose Response Curve) ([5]; Dose 5e-6, single replicate run, listed as iCBP-5): 912.484 and 912.12; Kd ([5]; MST, single replicate run, target clGFP-CBPBRD, TargetConcentration 5e-8, MST-Power Medium, unit inferred, read-out: Kd (Fit Results, Fit Model: Kd)): 16.1 nM and 33.7 nM; Bound (Fit Results) ([5]; fitted MST response of bound state, single replicate run, target clGFP-CBPBRD 5e-8, listed as iCBP-5): 911.766 and 911.236; Unbound (Fit Results) ([5]; fitted MST response of unbound state, single replicate run, target clGFP-CBPBRD 5e-8, listed as iCBP-5): 915.376 and 915.584; loss of binding affinity (CBP) ([5]; relative to CCS1477): ~ 10 fold |
| 14.3 ± 0.19 | – | 3.2 ± 0.13 | – | 15.3 ± 0.2 | – | – | – | 30 ± 21.6 nM | 558 ± 335 | COC1CCC(n2c(C3CCCC(=O)N3c3cccc(C(C)(C)C)c3)nc3cc(-c4c(C)noc4C)ccc32)CC1 (stereo not shown) [Compound 6] | 4.8 | – |
| 13.5 ± 0.89 | 13.5 | 6.9 ± 0.23 | 6.9 | 15.5 ± 0.14 | 15.5 | 15.5 | 15.5 | 17 nM and 16.9 nM | 452 ± 217 | COC1CCC(n2c(C3CCCC(=O)N3c3ccc4c(c3)OCCO4)nc3cc(-c4c(C)noc4C)ccc32)CC1 (stereo not shown) [Compound 7] | 2.2 | Kd ([5]; MO.Affinity Analysis export, single runs, target clGFP-CBPBRD 5e-8, unit inferred, read-out: Kd (fit result of individual MST run)): 15.5 nM and 27.7 nM and 7.4 nM |

| Compound | ∆Tm (°C) EP300 (EP300 bromodomain) [°C] | ΔTm (°C) EP300 (EP300 bromodomain) [°C] | ∆Tm (°C) BRD4-1 (BRD4-BD1 (BRD4-1) [1]) [°C] | ΔTm (°C) BRD4-BD1 (BRD4-BD1 (BRD4-1) [1]) [°C] | ∆Tm (°C) CBP (CBP bromodomain [2]) [°C] | ΔTm (°C) CBP (CBP bromodomain [2]; Figure 3A, CBP bromodomain) [°C] | ΔTm (°C) CBP (CBP bromodomain [2]; Figure 3B, CBP) [°C] | DSF ΔTm (°C) (CBP bromodomain [2]) | Kd [5, 7] | IC50 ([4]; Homo sapiens, HD-MB03) [nM] | Ratio CBP/BRD4 of ∆Tm (CBP bromodomain [3]) | further results |
| --- | --- | --- | --- | --- | --- | --- | --- | --- | --- | --- | --- | --- |
| COC1CCC(n2c(C3CCCC(=O)N3)nc3cc(-c4c(C)noc4C)ccc32)CC1 (stereo not shown) [Compound 2] | 5.6 ± 0.12 | 5.6 | 2.9 ± 0.11 | 2.9 | 5.6 ± 0.05 | 5.6 | 5.6 | 5.6 | 1770 ± 234 nM | – | 1.9 | ∆Tm (°C) BRD4-1 (BRD4-BD1 (BRD4-1) [1]; listed as CCS1447int2): 2.9 °C; ∆Tm (°C) CBP (CBP bromodomain [2]; listed as CCS1447int2): 5.6 °C; IC50 [4]: > 100000 nM; Kd ([5]; MO.Affinity Analysis export, single runs, target clGFP-CBPBRD 5e-8, unit inferred, listed as CCS1477int2, read-out: Kd (fit result of individual MST run)): 1770 nM and 1540 nM and 2010 nM; reduction of activity against BRD4 (BRD4-BD1 (BRD4-1) [6]): ~ 10 fold |
